SMILES strings stand for the structures.

A short description of one series: log P (HPLC/MS data of the preparation examples). The conditions noted are these: method [b]: LC-MS at pH 2.7, 0.1% formic acid in water / acetonitrile, linear gradient 10% to 95% acetonitrile.
For the compound `Cn1nc(C(F)(F)F)nc1C(=NOCc1cccc(NC(=O)Cc2ccccc2)n1)c1ccccc1` [Example 175], the log p was 4.24^[b].

For the compound `Cn1nc(C(F)(F)F)nc1C(=NOCc1cccc(NC(=O)CCc2ccccc2)n1)c1ccccc1` [Example 176], the log p is 4.49^[b].

As to `CC(C)CC(=O)Nc1cccc(CON=C(c2ccccc2)c2nc(C(F)(F)F)nn2C)n1` [Example 177], the log p is 4.24^[b].

As for `Cn1nc(C(F)(F)F)nc1C(=NOCc1cccc(NC(=O)C(C)(C)C)n1)c1ccccc1` [Example 178], the log p is 4.31^[b].

Regarding `CCCCCOC(=O)Nc1cccc(CON=C(c2ccccc2)c2nc(C(F)(F)F)nn2C)n1` [Example 179], the log p was 5.2^[b].

As for `CC(C)COC(=O)Nc1cccc(CON=C(c2ccccc2)c2nc(C(F)(F)F)nn2C)n1` [Example 180], the log p was 4.78^[b].

For `Cn1nc(C(F)(F)F)nc1C(=NOCc1cccc(N)n1)c1ccccc1` [Example 181], the log p is 1.97^[b].

For `CCCCCC(=O)Nc1cccc(CON=C(c2ccccc2)c2nc(C(F)(F)F)nn2C)n1` [Example 182], the log p is 4.67^[b].

Consider `Cn1nc(C(F)(F)F)nc1C(=NOCc1cccc(N2C(=O)c3ccccc3C2=O)n1)c1ccccc1` [Example 183], for which the log p was 3.99^[b].

Take `Cn1nc(C(F)(F)F)nc1C(=NOCc1cccc(NC(=O)C2CCCC2)n1)c1ccccc1` [Example 184]: the log p was 4.41^[b].

For `CC(=O)OCCCCOC(=O)Nc1cccc(CON=C(c2ccccc2)c2nc(C(F)(F)F)nn2C)n1` [Example 185], the log p was 4.11^[b].

Turning to `Cc1cc(C(F)(F)F)nn1CC(=O)Nc1cccc(CON=C(c2ccccc2)c2nc(C(F)(F)F)nn2C)n1` [Example 186], the log p was 4.31^[b].

Regarding `CCCCCOC(=O)Nc1cccc(CON=C(c2ccccc2)c2csc(C)n2)n1` [Example 187], the log p is 4.51^[b].

For `Cn1c(C(=NOCc2cccc(N3C(=O)c4ccccc4C3=O)n2)c2ccccc2)nnc1C(F)(F)F` [Example 192], the log p was 3.31^[b].

For the compound `Cc1ncc(C(=NOCc2cccc(N3C(=O)c4ccccc4C3=O)n2)c2ccccc2)n1C` [Example 194], the log p is 1.84^[b].

On to `CCCCCOC(=O)Nc1cccc(CON=C(c2ccccc2)c2csc(C)n2)n1` [Example 195], for which the log p is 4.92^[b].

On to `CCCCCC(=O)Nc1cccc(CON=C(c2ccccc2)c2nnc(C(F)(F)F)n2C)n1` [Example 196], for which the log p is 3.94^[b].

Regarding `CCCCCOC(=O)Nc1cccc(CON=C(c2ccccc2)c2nnc(C(F)(F)F)n2C)n1` [Example 197], the log p is 4.49^[b].

Consider `Cn1c(C(=NOCc2cccc(NC(=O)C(C)(C)C)n2)c2ccccc2)nnc1C(F)(F)F` [Example 198], for which the log p is 3.58^[b].

On to `Cn1c(C(=NOCc2cccc(NC(=O)Cc3ccccc3)n2)c2ccccc2)nnc1C(F)(F)F` [Example 200], for which the log p is 3.6^[b].

Consider `Cn1c(C(=NOCc2cccc(NC(=O)CCc3ccccc3)n2)c2ccccc2)nnc1C(F)(F)F` [Example 201], for which the log p was 3.85^[b].

In the case of `Cn1c(C(=NOCc2cccc(NC(=O)C3CCCC3)n2)c2ccccc2)nnc1C(F)(F)F` [Example 202], the log p is 3.69^[b].

Regarding `CC(C)COC(=O)Nc1cccc(CON=C(c2ccccc2)c2nnc(C(F)(F)F)n2C)n1` [Example 203], the log p was 4.06^[b].

Turning to `Cn1c(C(=NOCc2cccc(NC(=O)c3cccs3)n2)c2ccccc2)nnc1C(F)(F)F` [Example 204], the log p was 3.48^[b].

For `CCOc1ccc(C(=O)Nc2cccc(CON=C(c3ccccc3)c3nnc(C(F)(F)F)n3C)n2)cc1` [Example 205], the log p was 3.94^[b].

`CSCCC(=O)Nc1cccc(CON=C(c2ccccc2)c2nnc(C(F)(F)F)n2C)n1` [Example 206]: the log p is 3.15^[b].

Consider `CCCCC(=O)Nc1cccc(CON=C(c2ccccc2)c2nnc(C(F)(F)F)n2C)n1` [Example 207], for which the log p was 3.58^[b].

With `Cn1ncnc1C(=NOCc1cccc(N2CCCCC2=O)n1)c1ccccc1` [Example 208], the log p is 2.18^[b].

With `Cc1ncc(C(=NOCc2cccc(N)n2)c2ccccc2)n1C` [Example 209], the log p is 0.56^[b].

As to `CCCCCOC(=O)Nc1cccc(CON=C(c2ccccc2)c2cnc(C)n2C)n1` [Example 211], the log p was 3.13^[b].

For the compound `CCCCCC(=O)Nc1cccc(CON=C(c2ccccc2)c2cnc(C)n2C)n1` [Example 212], the log p was 2.08^[b].

Consider `Cc1nnsc1C(=NOCc1cccc(N2C(=O)c3ccccc3C2=O)n1)c1ccccc1` [Example 214], for which the log p is 3.69^[b].

Take `Cc1nnsc1C(=NOCc1cccc(N)n1)c1ccccc1` [Example 215]: the log p was 1.63^[b].

As for `CCCCCC(=O)Nc1cccc(CON=C(c2ccccc2)c2snnc2C)n1` [Example 216], the log p was 4.46^[b].

In the case of `CCCCCOC(=O)Nc1cccc(CON=C(c2ccccc2)c2snnc2C)n1` [Example 217], the log p is 5.11^[b].

Take `Cc1nnsc1C(=NOCc1cccc(NC(=O)CC(C)C)n1)c1ccccc1` [Example 218]: the log p was 3.96^[b].

Regarding `Cc1nnsc1C(=NOCc1cccc(NC(=O)Cc2ccccc2)n1)c1ccccc1` [Example 219], the log p is 4.04^[b].

`Cc1nnsc1C(=NOCc1cccc(NC(=O)CCc2ccccc2)n1)c1ccccc1` [Example 220]: the log p is 4.31^[b].

Turning to `Cc1nnsc1C(=NOCc1cccc(NC(=O)CCC2CCCC2)n1)c1ccccc1` [Example 221], the log p is 5^[b].

As to `Cc1nnsc1C(=NOCc1cccc(NC(=O)OCC(C)C)n1)c1ccccc1` [Example 222], the log p is 4.65^[b].

For `Cc1nnsc1C(=NOCc1cccc(NC(=O)CCC2CCCCC2)n1)c1ccccc1` [Example 223], the log p was 5.41^[b].

Regarding `CCCCC(=O)Nc1cccc(CON=C(c2ccccc2)c2snnc2C)n1` [Example 224], the log p is 4.04^[b].

For the compound `Cn1ccnc1C(=NOCc1cccc(N2C(=O)c3ccccc3C2=O)n1)c1cccc(F)c1` [Example 227], the log p was 2.13^[b].

Consider `Cn1cnnc1C(=NOCc1cccc(C#CCC2CCCC2)n1)c1ccccc1` [Example 230], for which the log p is 3.76^[b].

As to `Cn1cnnc1C(=NOCc1cccc(C#CCC2CCCCC2)n1)c1ccccc1` [Example 231], the log p is 4.14^[b].

Regarding `Cn1cnnc1C(=NOCc1cccc(C#Cc2ccccc2)n1)c1ccccc1` [Example 232], the log p was 3.15^[b].

`Cn1ccnc1C(=NOCc1cccc(N)n1)c1cccc(F)c1` [Example 233]: the log p was 0.54^[b].

Regarding `COc1ccccc1CC(=O)Nc1cccc(CON=C(c2ccccc2)c2ncnn2C)n1` [Example 234], the log p is 3.17^[b].

The same series, now with this note: reversed phase HPLC column, pH 2.7.
A word on the chromatographic logP: it is a lipophilicity value derived from retention on a column. Low readings indicate a more hydrophilic compound, high ones a more lipophilic compound. As for `Cn1cnnc1C(=NOCc1cccc(Br)n1)c1ccccc1` [Example 228, N-[(6-bromopyridin-2-yl)methoxy]-1-(4-methyl-4H-1,2,4-triazol-3-yl)-1-phenylmethanimine], the chromatographic logP came out at 2.28.

The compound `Cn1cnnc1C(=NOCc1cccc(C#CC2CC2)n1)c1ccccc1` [Example 229, N-{[6-(cyclopropylethynyl)pyridin-2-yl]methoxy}-1-(4-methyl-4H-1,2,4-triazol-3-yl)-1-phenylmethanimine] registered a chromatographic logP of 2.56.
